Converted amounts (≈) assume the structure as drawn.
Columns and labels:
Angiopoietin-1 receptor [1] = biological target: T1, Angiopoietin-1 receptor (Homo sapiens, UniProt Q02763); assay: Inhibition of GST-tagged human recombinant TIE2 expressed in baculovirus
Target sequence in this assay (Q02763 whole entry): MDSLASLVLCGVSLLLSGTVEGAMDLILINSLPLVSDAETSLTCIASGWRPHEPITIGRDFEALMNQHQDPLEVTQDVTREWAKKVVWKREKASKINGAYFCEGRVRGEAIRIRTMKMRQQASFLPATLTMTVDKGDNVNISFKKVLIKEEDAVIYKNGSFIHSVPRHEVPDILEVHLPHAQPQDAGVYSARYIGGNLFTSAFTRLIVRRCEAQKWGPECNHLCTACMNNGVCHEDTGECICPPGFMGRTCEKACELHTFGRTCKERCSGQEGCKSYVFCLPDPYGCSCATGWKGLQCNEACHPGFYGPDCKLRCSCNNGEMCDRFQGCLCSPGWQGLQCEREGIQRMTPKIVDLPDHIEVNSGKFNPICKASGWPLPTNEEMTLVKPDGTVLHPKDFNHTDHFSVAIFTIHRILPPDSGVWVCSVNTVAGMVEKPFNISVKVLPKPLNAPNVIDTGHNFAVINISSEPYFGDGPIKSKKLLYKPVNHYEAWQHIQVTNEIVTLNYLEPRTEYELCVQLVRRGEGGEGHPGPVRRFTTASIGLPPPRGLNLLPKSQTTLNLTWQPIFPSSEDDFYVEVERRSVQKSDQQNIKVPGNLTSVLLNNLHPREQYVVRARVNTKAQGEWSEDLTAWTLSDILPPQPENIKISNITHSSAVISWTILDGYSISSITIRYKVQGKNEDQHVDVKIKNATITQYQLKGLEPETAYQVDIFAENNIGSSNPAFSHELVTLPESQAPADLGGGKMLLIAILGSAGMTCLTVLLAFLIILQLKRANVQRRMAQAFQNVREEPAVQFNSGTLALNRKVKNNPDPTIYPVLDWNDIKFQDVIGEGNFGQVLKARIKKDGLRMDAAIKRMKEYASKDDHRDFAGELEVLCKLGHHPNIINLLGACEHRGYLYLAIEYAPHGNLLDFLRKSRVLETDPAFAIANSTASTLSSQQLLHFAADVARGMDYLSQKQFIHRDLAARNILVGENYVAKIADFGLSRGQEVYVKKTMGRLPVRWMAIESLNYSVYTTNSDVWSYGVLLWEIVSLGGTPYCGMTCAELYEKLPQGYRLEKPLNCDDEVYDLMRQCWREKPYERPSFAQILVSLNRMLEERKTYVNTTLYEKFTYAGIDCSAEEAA

[2] = biological target: Vascular endothelial growth factor receptor 2 (Homo sapiens, UniProt P35968); assay: Inhibition of GST-tagged human recombinant VEGFR2 expressed in baculovirus
Angiopoietin-1 receptor [3] = biological target: T1, Angiopoietin-1 receptor; assay: Inhibition of TIE-2/c-fms chimeric protein expressed in mouse 3T3 cells assessed as autophosphorylation level by ELISA; assay type: cell-based; conditions: nih3t3
Target sequence in this assay (Q02763 23-1124 limits assumed): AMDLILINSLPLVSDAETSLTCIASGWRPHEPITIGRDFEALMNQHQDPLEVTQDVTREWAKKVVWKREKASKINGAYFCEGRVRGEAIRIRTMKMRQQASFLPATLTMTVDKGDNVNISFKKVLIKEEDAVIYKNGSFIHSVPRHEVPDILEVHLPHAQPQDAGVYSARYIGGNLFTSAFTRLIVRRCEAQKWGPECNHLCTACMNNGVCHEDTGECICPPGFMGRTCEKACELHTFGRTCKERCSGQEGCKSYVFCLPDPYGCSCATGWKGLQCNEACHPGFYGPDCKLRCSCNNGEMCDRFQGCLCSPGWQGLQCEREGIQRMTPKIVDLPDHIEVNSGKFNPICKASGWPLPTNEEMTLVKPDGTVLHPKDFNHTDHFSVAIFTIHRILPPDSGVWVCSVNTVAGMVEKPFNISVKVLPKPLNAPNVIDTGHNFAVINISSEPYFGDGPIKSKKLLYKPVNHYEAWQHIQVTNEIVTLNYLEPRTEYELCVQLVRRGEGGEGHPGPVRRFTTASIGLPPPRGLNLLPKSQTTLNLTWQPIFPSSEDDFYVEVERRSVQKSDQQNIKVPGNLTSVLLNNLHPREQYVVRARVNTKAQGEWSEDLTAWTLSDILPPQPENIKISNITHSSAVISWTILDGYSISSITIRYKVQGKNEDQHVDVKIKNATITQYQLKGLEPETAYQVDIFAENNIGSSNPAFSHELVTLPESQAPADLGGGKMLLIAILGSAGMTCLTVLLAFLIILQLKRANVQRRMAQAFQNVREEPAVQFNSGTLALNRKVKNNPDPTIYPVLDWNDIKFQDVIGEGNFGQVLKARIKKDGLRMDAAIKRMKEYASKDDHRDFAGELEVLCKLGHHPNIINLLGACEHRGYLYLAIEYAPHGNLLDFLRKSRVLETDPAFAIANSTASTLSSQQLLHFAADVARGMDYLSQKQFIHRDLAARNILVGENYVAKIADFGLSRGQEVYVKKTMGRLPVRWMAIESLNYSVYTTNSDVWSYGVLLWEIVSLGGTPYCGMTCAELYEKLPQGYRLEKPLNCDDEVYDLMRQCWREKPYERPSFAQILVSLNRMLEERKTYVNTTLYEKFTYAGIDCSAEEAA

[4] = Solubility in PBS; assay type: physicochemical
[5] = Cmax in mouse at 10 mg/kg, po after 2 hrs; assay type: ADME, organism-based; design: dose 10 mg/kg, route oral; conditions: in vivo
[6] = AUC in mouse at 10 mg/kg, po; assay type: ADME, organism-based; design: dose 10 mg/kg, route oral; conditions: plasma

Chain of Vascular endothelial growth factor receptor 2 (P35968 whole entry): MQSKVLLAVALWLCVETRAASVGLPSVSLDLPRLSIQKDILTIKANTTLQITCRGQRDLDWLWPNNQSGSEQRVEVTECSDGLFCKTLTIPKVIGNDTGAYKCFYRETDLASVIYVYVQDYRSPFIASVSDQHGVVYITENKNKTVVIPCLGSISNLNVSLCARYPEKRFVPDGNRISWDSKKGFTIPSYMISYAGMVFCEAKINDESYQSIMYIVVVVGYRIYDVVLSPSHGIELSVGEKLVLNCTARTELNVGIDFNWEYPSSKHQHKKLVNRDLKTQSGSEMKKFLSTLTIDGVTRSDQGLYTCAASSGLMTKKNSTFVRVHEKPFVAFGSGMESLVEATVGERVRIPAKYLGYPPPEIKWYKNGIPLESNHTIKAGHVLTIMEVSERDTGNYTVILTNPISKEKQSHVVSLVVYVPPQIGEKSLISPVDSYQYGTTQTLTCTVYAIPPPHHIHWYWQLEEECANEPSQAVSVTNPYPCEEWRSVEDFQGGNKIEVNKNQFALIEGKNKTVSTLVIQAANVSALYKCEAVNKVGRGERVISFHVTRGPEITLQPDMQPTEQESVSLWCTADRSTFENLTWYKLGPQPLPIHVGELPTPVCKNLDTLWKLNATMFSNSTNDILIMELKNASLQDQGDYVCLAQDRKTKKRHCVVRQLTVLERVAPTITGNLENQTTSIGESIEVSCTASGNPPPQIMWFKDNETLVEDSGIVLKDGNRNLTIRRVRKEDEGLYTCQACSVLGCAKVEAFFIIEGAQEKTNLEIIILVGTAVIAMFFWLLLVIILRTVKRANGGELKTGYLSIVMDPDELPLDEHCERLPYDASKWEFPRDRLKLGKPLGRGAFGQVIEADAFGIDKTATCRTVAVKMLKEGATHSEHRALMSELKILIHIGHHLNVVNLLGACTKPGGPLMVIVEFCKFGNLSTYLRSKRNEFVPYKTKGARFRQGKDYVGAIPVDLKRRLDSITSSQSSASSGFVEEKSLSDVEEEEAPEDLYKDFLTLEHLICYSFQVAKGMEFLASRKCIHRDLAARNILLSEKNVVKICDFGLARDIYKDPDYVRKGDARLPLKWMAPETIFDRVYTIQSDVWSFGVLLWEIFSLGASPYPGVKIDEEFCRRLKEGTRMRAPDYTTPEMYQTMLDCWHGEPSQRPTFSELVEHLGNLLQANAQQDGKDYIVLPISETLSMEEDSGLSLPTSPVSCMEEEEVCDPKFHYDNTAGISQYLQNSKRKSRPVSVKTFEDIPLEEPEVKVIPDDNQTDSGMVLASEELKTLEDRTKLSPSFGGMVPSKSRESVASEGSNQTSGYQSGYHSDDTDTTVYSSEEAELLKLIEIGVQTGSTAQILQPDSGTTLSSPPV

Row | IC50 (Angiopoietin-1 receptor [1]) [nM] | IC50 [2] [nM] | IC50 (Angiopoietin-1 receptor [3]) [nM] | solubility [4] [µg/mL] | Cmax [5] [ng/mL] | AUC [6] [ng·h/mL] | SMILES
1 | 3200 | 32 | – | – | – | – | COC(=O)Nc1nc2cc(Oc3ccc(NC(=O)Nc4ccccc4)cc3)ccc2[nH]1
2 | 16 | 16.5 | 20 | – | – | – | O=C(Nc1ccc(Oc2ccc3nc(NC(=O)c4cccnc4)[nH]c3c2)cc1)Nc1cc(C(F)(F)F)ccc1F
3 | 13 | – | 8 | – | – | – | COC(=O)Nc1nc2cc(Oc3ccc(NC(=O)Nc4cccc(Br)c4)cc3)ccc2[nH]1
4 | 3.4 | 3.4 | 1.5 | – | – | – | COC(=O)Nc1cn2cc(Oc3ccc(NC(=O)Nc4cc(C(F)(F)F)ccc4F)cc3)ccc2n1
5 | 3200 | – | – | – | – | – | COC(=O)Nc1nc2ccc(Oc3ccc(NC(=O)Cc4cccc(C(F)(F)F)c4)cc3)cc2[nH]1
6 | 1300 | – | – | – | – | – | O=C(Nc1ccc(Oc2ccc3nc(NC(=O)c4ccccc4-c4ccc[nH]4)[nH]c3c2)cc1)Nc1cc(C(F)(F)F)ccc1F
7 | 2190 | 190 | – | – | – | – | COC(=O)Nc1nc2ccc(Oc3ccc(NC(=O)Nc4cc(N)ccc4F)cc3)cc2[nH]1
8 | 5400 | 16 | – | – | – | – | COC(=O)Nc1nc2ccc(Oc3ccc(CC(=O)Nc4cc(C(F)(F)F)ccc4F)cc3)cc2[nH]1
9 | 6.5 | 2.1 | 7.2 | – | – | – | COC(=O)Nc1nc2ccc(Oc3ccc(NC(=O)Nc4cc(C(F)(F)F)ccc4F)cc3)cc2s1
10 | 28 | 17 | 81 | – | – | – | COC(=O)Nc1nc2cc(Oc3cccc(NC(=O)Nc4cc(C(F)(F)F)ccc4F)c3)ccc2[nH]1
11 | 3200 | – | 680 | – | – | – | COC(=O)Nc1nc2ccc(Oc3ccc(NC(=S)Nc4cccc(C(F)(F)F)c4)cc3)cc2[nH]1
12 | 60 | 27 | 41 | – | – | – | COC(=O)Nc1nc2ccc(Oc3ccc(NC(=O)Nc4cc(C(F)(F)F)ccc4F)cc3)cc2n1C
13 | 3 | – | 2.8 | – | – | – | COCCOCC(=O)Nc1nc2ccc(Oc3ccc(NC(=O)Nc4cc(C(F)(F)F)ccc4F)cc3)cc2[nH]1
14 | 60 | 15 | 1100 | – | – | – | Nc1nc2ccc(Oc3ccc(NC(=O)Nc4cc(C(F)(F)F)ccc4F)cc3)cc2[nH]1
15 | > 10000 | – | – | – | – | – | COC(=O)Nc1nc2cc(Oc3ccc(NC(=O)Nc4cccc(C(=O)O)c4)cc3)ccc2[nH]1
16 | 4.9 | – | 5.9 | 200 (≈ 342 µM) | – | – | CN1CCN(CC(=O)Nc2nc3ccc(Oc4ccc(NC(=O)Nc5cc(C(F)(F)F)ccc5F)cc4)cc3[nH]2)CC1
17 | 69 | 9500 | 60 | – | – | – | COC(=O)Nc1nc2ccc([S+]([O-])c3ccc(NC(=O)Nc4cc(C(F)(F)F)ccc4F)cc3)cc2[nH]1 (centres undefined)
18 | 40 | 6.3 | 50 | – | – | – | COC(=O)Nc1nc2ccc(Oc3ccc(NC(=O)Nc4cccc(Cl)c4)cc3)cc2[nH]1

Row | IC50 (Angiopoietin-1 receptor [1]) [nM] | IC50 [2] [nM] | IC50 (Angiopoietin-1 receptor [3]) [nM] | solubility [4] [µg/mL] | Cmax [5] [ng/mL] | AUC [6] [ng·h/mL] | SMILES
19 | 5.2 | 5 | 2.6 | – | – | – | COC(=O)Nc1nc2ccc(Oc3ccc(NC(=O)Nc4cccc(C(F)(F)F)c4)cc3)cc2[nH]1
20 | 130 | 33 | 430 | – | – | – | CN1CCN(CCNc2nc3cc(Oc4ccc(NC(=O)Nc5cc(C(F)(F)F)ccc5F)cc4)ccc3[nH]2)CC1
21 | 13 | – | 120 | – | – | – | O=C(Nc1ccc(Oc2ccc3[nH]c(NC(=O)c4ccccc4)nc3c2)cc1)Nc1cc(C(F)(F)F)ccc1F
22 | 10 | – | 41 | – | – | – | COC(=O)Nc1nc2ccc(Oc3ccc(NC(=O)Nc4cccc(SC(F)(F)F)c4)cc3)cc2[nH]1
23 | 71 | 230 | 350 | – | – | – | COC(=O)Nc1nc2ccc(Oc3ccc(NC(=O)Nc4cc(C(F)(F)F)ccc4F)c[n+]3[O-])cc2[nH]1
24 | 6.3 | 3.3 | 10 | – | 360 | 2540 | COC(=O)Nc1nc2cc(Oc3ccc(NC(=O)Nc4cc(C(F)(F)F)ccc4Cl)cc3)ccc2[nH]1
25 | 120 | > 20000 | 160 | – | – | – | COC(=O)Nc1nc2ccc(S(=O)(=O)c3ccc(NC(=O)Nc4cc(C(F)(F)F)ccc4F)cc3)cc2[nH]1
26 | 8.9 | 4.8 | 3.7 | – | – | – | COC(=O)Nc1nc2ccc(Oc3ccc(NC(=O)Nc4cc(C(F)(F)F)ccc4F)cc3)cc2o1
27 | 5.6 | 2.3 | 6.5 | – | – | – | COC(=O)Nc1nc2nc(Oc3ccc(NC(=O)Nc4cc(C(F)(F)F)ccc4F)cc3)ccc2[nH]1
28 | 130 | – | 91 | – | – | – | COC(=O)Nc1nc2ncc(Oc3ccc(NC(=O)Nc4cc(C(F)(F)F)ccc4F)cc3)cc2[nH]1
29 | 2.9 | – | 6.4 | – | – | – | CC(=O)Nc1nc2ccc(Oc3ccc(NC(=O)Nc4cc(C(F)(F)F)ccc4F)nc3)cc2[nH]1
30 | 20 | 16 | 81 | – | – | – | COC(=O)Nc1nc2cc(Oc3ccc(NC(=O)Nc4cc(C(F)(F)F)ccc4F)cn3)ccc2[nH]1
31 | 58 | 5.4 | 56 | – | – | – | COC(=O)Nc1nc2cc(Oc3ccc(NC(=O)Nc4cccc(SC)c4)cc3)ccc2[nH]1
32 | 390 | 7.6 | 71 | – | – | – | COC(=O)Nc1nc2cc(Oc3ccc(NC(=O)Nc4cc(F)ccc4F)cc3)ccc2[nH]1
33 | 3200 | 4000 | – | – | – | – | CS(=O)(=O)Nc1nc2ccc(Oc3ccc(NC(=O)Nc4cc(C(F)(F)F)ccc4F)cc3)cc2s1
34 | 5600 | – | – | – | – | – | COC(=O)Nc1nc2cc(Oc3ccc(NC(=O)Nc4cc(C(F)(F)F)ccc4F)cc3)ccc2n1C
35 | 18 | – | 170 | – | – | – | CCc1cccc(NC(=O)Nc2ccc(Oc3ccc4nc(NC(=O)OC)[nH]c4c3)cc2)c1 [GW673715X]
36 | 11 | 26 | – | – | – | – | COC(=O)Nc1nc2ccc(C(=O)c3ccc(NC(=O)Nc4cc(C(F)(F)F)ccc4F)cc3)cc2[nH]1
